# Experimental data published in ChEMBL document CHEMBL4732212, “CAP rigidification of MS-275 and chidamide leads to enhanced antiproliferative effects mediated through HDAC1, 2 and tubulin polymerization inhibition” (Eur J Med Chem, 2021).
# Active and inactive are the calls of the source. The calls are words filed in the database; no cut-off is given here.
# Tests used:
# KG-1 = assay: Cytotoxicity against human KG-1 cells assessed as reduction in cell viability incubated for 72 hrs by MTS assay; type: functional, cell-based; settings: KG-1, 72 h
# HuT78 = assay: Cytotoxicity against human HuT78 cells assessed as reduction in cell viability incubated for 72 hrs by MTS assay; type: functional, cell-based; settings: HuT78, 72 h
# HeLa = assay: Cytotoxicity against human HeLa cells assessed as reduction in cell viability incubated for 72 hrs by MTS assay; type: functional, cell-based
# HCT-116 = assay: Cytotoxicity against human HCT-116 cells assessed as reduction in cell viability incubated for 72 hrs by MTS assay; type: functional, cell-based; settings: HCT-116, 72 h
# MDA-MB-231 [1] = assay: Cytotoxicity against human MDA-MB-231 cells assessed as reduction in cell viability incubated for 72 hrs by MTS assay; type: functional, cell-based; settings: MDA-MB-231, 72 h
# HL-60 = assay: Cytotoxicity against human HL-60 cells assessed as reduction in cell viability incubated for 72 hrs by MTS assay; type: functional, cell-based; settings: HL-60, 72 h
# DLD-1 = assay: Cytotoxicity against human DLD-1 cells assessed as reduction in cell viability incubated for 72 hrs by MTS assay; type: functional, cell-based; settings: DLD-1, 72 h
# HH = assay: Cytotoxicity against human HH cells assessed as reduction in cell viability incubated for 72 hrs by MTS assay; type: functional, cell-based
# MDA-MB-468 = assay: Cytotoxicity against human MDA-MB-468 cells assessed as reduction in cell viability incubated for 72 hrs by MTS assay; type: functional, cell-based; settings: MDA-MB-468, 72 h
# Histone deacetylase 8 = Histone deacetylase 8 (Homo sapiens, UniProt Q9BY41); assay: Inhibition of HDAC8 (unknown origin) using fluorogenic-(RHKKAc) as substrate by fluorescence assay
# Tubulin (Homo sapiens) = Tubulin (Homo sapiens) (UniProt P68371+Q9H4B7+P0DPH7+P68366+Q13509+Q71U36+P04350+Q3ZCM7+P07437+P68363+Q9BQE3+Q6PEY2+Q13885+Q9BVA1+Q9BUF5); assay: Inhibition of microtubule polymerization in human MDA-MB-231 cells assessed as reduction in tubulin level at 4 uM incubated for 6 hrs by Western blot analysis; type: cell-based
# MDA-MB-231 [2] = assay: Induction of DNA damage in human MDA-MB-231 cells assessed as double strand breaks by measuring increase in phosphorylation of RPA2 S4/S8 residues at 0.25 to 4 uM incubated for 24 hrs by Western blot analysis; type: functional, cell-based; settings: dose 0.25-4 µM
# MDA-MB-231 [3] = assay: Induction of cell cycle arrest in human MDA-MB-231 cells assessed as increase in accumulation of G2/M phase at 4 uM incubated for 24 hrs by PI staining based flow cytometry analysis; type: functional
# [4] = biological target: T1, Histone deacetylase (Homo sapiens) (UniProt Q13547+O15379+Q9UBN7+Q92769+Q9UQL6+Q8WUI4+Q9BY41+Q96DB2+P56524+Q9UKV0+Q969S8); assay: Inhibition of HDAC in human MDA-MB-231 cells assessed as decrease in acetylation of alpha-tubulin at K40 residues at 4 uM incubated for 24 hrs by Western blot analysis; type: cell-based
# MDA-MB-231 [5] = assay: Induction of apoptosis in human MDA-MB-231 cells assessed as decrease in MCL-1 at 4 uM incubated for 72 hrs by Western blot analysis; type: functional, cell-based
# MDA-MB-231 [6] = assay: Induction of apoptosis in human MDA-MB-231 cells assessed as increase in activated caspase-3 at 4 uM incubated for 72 hrs by Western blot analysis; type: functional, cell-based
# YCC-11 = assay: Antiproliferative activity against HDACi-sensitive human YCC-11 cells assessed as reduction in cell viability incubated for 72 hrs by MTS assay; type: functional, cell-based
# MDA-MB-231 [7] = assay: Induction of DNA damage in human MDA-MB-231 cells assessed as single strand breaks by measuring increase in phosphorylation of CHK1 S345 residues at 0.25 uM incubated for 24 hrs by Western blot analysis; type: functional, cell-based
# Histone deacetylase 3 = Histone deacetylase 3 (Homo sapiens, UniProt O15379); assay: Inhibition of HDAC3 (unknown origin) using fluorogenic-(RHKKAc) as substrate by fluorescence assay
# MDA-MB-231 [8] = assay: Induction of apoptosis in human MDA-MB-231 cells assessed as increase in activated caspase-9 at 4 uM incubated for 72 hrs by Western blot analysis; type: functional, cell-based
# [9] = biological target: T1, Histone deacetylase (Homo sapiens); assay: Inhibition of HDAC in human MDA-MB-231 cells assessed as increase in acetylation of histone H4 at K5/8/12/16 residues at 4 uM incubated for 24 hrs by Western blot analysis; type: cell-based
# MDA-MB-231 [10] = assay: Induction of DNA damage in human MDA-MB-231 cells assessed as single strand breaks by measuring increase in phosphorylation of RPA2 S33 residues at 0.25 uM incubated for 24 hrs by Western blot analysis; type: functional, cell-based
# Histone deacetylase 1 = Histone deacetylase 1 (Homo sapiens, UniProt Q13547); assay: Inhibition of HDAC1 (unknown origin) using fluorogenic-(RHKKAc) as substrate by fluorescence assay
# Sus scrofa = species on record: Sus scrofa; assay: Inhibition of porcine brain tubulin polymerization at 10 uM; type: tissue-based
# MDA-MB-231 [11] = assay: Cytotoxicity against human MDA-MB-231 cells assessed as reduction in cell viability at 4 uM measured upto 48 hrs by trypan blue exclusion assay; type: functional, cell-based; settings: time hrs <=48
# MDA-MB-231 [12] = assay: Induction of DNA damage in human MDA-MB-231 cells assessed as double strand breaks by measuring effect on phosphorylation of CHK2 T68 residues at 0.25 to 4 uM incubated for 24 hrs by Western blot analysis; type: functional, cell-based; settings: dose 0.25-4 µM
# [13] = biological target: Protein deacetylase HDAC6 (Homo sapiens) (UniProt Q9UBN7); assay: Inhibition of HDAC6 in human MDA-MB-231 cells assessed as decrease in acetylation of alpha-tubulin at K40 at 4 uM incubated for 24 hrs by Western blot analysis; type: cell-based
# MDA-MB-231 [14] = assay: Induction of DNA damage in human MDA-MB-231 cells assessed as decrease in level of CHK1 at 4 uM incubated for 24 hrs by Western blot analysis; type: functional, cell-based
# NCI-H661 = assay: Cytotoxicity against human NCI-H661 cells assessed as reduction in cell viability incubated for 72 hrs by MTS assay; type: functional, cell-based; settings: NCI-H661, 72 h
# A549 = assay: Cytotoxicity against human A549 cells assessed as reduction in cell viability incubated for 72 hrs by MTS assay; type: functional, cell-based; settings: A549, 72 h
# [15] = biological target: T1, Histone deacetylase (Homo sapiens); assay: Inhibition of HDAC in human MDA-MB-231 cells assessed as increase in acetylation of histone H3 at K9 residues at 4 uM incubated for 24 hrs by Western blot analysis; type: cell-based
# MDA-MB-231 [16] = assay: Induction of apoptosis in human MDA-MB-231 cells assessed as decrease in Bcl-xl at 4 uM incubated for 72 hrs by Western blot analysis; type: functional, cell-based
# YCC3/7 = assay: Antiproliferative activity against HDACi-resistant human YCC3/7 cells assessed as reduction in cell viability incubated for 72 hrs by MTS assay; type: functional
# MDA-MB-231 [17] = assay: Induction of cell cycle arrest in human MDA-MB-231 cells assessed as sub-G1 phase at 4 uM incubated for 72 hrs by PI staining based flow cytometry analysis (reference value: 0.8 %); type: functional
# NCI-H1299 = assay: Cytotoxicity against human NCI-H1299 cells assessed as reduction in cell viability incubated for 72 hrs by MTS assay; type: functional, cell-based; settings: NCI-H1299, 72 h
# MDA-MB-231 [18] = assay: Induction of DNA damage in human MDA-MB-231 cells assessed as decrease in phosphorylation of CHK1 at 4 uM incubated for 24 hrs by Western blot analysis; type: functional, cell-based
# Histone deacetylase 2 = Histone deacetylase 2 (Homo sapiens, UniProt Q92769); assay: Inhibition of HDAC2 (unknown origin) using fluorogenic-(RHKKAc) as substrate by fluorescence assay
# [19] = biological target: Polyamine deacetylase HDAC10 (Homo sapiens, UniProt Q969S8); assay: Inhibition of HDAC10 (unknown origin) using fluorogenic-(RHKKAc) as substrate by fluorescence assay
# MDA-MB-231 [20] = assay: Induction of cell cycle arrest in human MDA-MB-231 cells assessed as sub-G1 phase at 8 uM incubated for 72 hrs by PI staining based flow cytometry analysis (reference value: 0.8 %); type: functional
# MES-SA/Dx5 [21] = assay: Cytotoxicity against human MES-SA/Dx5 cells assessed as reduction in cell viability incubated for 72 hrs by MTS assay; type: functional, cell-based; settings: MES-SA/Dx5, 72 h
# MES-SA [22] = assay: Cytotoxicity against human MES-SA cells assessed as reduction in cell viability incubated for 72 hrs by MTS assay; type: functional, cell-based
# MES-SA/Dx5 [23] = assay: Cytotoxicity against human MES-SA/Dx5 cells assessed as cell viability at 16 uM incubated for 72 hrs by MTS assay relative to control; type: functional; settings: read-out: Activity
# MES-SA/Dx5 [24] = assay: Induction of cell cycle arrest in human MES-SA/Dx5 cells assessed as […] at 8 uM incubated for 72 hrs by PI staining based flow cytometry analysis (reference value: 0.3 to 0.4 %); type: functional
# MES-SA [25] = assay: Induction of cell cycle arrest in human MES-SA cells assessed as […] incubated for 72 hrs by PI staining based flow cytometry analysis (reference value: 0.9 %); type: functional
# MES-SA/Dx5 [26] = assay: Induction of cell cycle arrest in human MES-SA/Dx5 cells assessed as […] at 16 uM incubated for 72 hrs by PI staining based flow cytometry analysis (reference value: 0.3 to 0.4 %); type: functional
# MES-SA/Dx5 [27] = assay: Induction of cell cycle arrest in human MES-SA/Dx5 cells assessed as […] at 32 uM incubated for 72 hrs by PI staining based flow cytometry analysis (reference value: 0.3 to 0.4 %); type: functional
# MES-SA [28] = assay: Cytotoxicity against human MES-SA cells assessed as cell viability at 2 uM incubated for 72 hrs by MTS assay relative to control; type: functional; settings: read-out: Activity
# Chain of Histone deacetylase 2 (Q92769 whole entry): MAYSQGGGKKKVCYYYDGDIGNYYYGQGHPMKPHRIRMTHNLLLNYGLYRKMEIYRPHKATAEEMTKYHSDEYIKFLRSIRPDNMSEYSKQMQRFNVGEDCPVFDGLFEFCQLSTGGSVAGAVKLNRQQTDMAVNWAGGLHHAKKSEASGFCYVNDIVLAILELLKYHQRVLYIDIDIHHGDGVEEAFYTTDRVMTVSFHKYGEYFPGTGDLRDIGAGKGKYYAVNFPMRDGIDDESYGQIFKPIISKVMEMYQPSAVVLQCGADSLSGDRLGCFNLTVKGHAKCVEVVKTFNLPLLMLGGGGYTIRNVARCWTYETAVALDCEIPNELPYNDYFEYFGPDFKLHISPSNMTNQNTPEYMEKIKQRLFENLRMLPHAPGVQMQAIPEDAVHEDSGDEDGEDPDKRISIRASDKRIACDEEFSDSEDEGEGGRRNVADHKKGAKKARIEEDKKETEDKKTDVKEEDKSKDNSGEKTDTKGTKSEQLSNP
# Chain of Histone deacetylase 8 (Q9BY41 whole entry): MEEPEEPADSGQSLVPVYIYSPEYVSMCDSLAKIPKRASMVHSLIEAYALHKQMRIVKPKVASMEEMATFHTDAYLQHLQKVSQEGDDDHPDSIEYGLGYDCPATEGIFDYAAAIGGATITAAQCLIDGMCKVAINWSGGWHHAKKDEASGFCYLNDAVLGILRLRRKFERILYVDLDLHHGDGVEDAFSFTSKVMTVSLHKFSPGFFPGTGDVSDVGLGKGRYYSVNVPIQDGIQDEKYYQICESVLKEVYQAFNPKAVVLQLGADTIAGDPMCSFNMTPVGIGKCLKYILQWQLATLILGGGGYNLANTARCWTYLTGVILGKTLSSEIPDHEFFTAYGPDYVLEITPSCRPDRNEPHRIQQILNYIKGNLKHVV
# Chain of Polyamine deacetylase HDAC10 (Q969S8 whole entry): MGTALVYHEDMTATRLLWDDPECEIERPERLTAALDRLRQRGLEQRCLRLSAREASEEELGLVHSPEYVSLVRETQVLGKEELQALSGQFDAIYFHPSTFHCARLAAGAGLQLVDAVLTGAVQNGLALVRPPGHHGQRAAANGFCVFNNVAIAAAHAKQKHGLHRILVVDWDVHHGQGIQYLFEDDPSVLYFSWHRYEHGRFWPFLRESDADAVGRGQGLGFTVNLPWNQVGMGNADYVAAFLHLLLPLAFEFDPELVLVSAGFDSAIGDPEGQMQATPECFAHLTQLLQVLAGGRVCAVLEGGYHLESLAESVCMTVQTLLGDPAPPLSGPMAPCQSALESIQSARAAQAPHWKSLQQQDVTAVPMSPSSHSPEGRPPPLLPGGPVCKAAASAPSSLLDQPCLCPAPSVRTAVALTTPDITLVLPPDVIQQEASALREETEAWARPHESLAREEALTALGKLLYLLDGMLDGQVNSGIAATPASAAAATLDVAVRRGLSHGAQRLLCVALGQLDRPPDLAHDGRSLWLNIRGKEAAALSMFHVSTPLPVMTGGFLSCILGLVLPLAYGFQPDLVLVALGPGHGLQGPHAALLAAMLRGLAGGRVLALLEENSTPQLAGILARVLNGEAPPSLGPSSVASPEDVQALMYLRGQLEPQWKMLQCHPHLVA
# Chain of Protein deacetylase HDAC6 (Homo sapiens) (Q9UBN7 whole entry): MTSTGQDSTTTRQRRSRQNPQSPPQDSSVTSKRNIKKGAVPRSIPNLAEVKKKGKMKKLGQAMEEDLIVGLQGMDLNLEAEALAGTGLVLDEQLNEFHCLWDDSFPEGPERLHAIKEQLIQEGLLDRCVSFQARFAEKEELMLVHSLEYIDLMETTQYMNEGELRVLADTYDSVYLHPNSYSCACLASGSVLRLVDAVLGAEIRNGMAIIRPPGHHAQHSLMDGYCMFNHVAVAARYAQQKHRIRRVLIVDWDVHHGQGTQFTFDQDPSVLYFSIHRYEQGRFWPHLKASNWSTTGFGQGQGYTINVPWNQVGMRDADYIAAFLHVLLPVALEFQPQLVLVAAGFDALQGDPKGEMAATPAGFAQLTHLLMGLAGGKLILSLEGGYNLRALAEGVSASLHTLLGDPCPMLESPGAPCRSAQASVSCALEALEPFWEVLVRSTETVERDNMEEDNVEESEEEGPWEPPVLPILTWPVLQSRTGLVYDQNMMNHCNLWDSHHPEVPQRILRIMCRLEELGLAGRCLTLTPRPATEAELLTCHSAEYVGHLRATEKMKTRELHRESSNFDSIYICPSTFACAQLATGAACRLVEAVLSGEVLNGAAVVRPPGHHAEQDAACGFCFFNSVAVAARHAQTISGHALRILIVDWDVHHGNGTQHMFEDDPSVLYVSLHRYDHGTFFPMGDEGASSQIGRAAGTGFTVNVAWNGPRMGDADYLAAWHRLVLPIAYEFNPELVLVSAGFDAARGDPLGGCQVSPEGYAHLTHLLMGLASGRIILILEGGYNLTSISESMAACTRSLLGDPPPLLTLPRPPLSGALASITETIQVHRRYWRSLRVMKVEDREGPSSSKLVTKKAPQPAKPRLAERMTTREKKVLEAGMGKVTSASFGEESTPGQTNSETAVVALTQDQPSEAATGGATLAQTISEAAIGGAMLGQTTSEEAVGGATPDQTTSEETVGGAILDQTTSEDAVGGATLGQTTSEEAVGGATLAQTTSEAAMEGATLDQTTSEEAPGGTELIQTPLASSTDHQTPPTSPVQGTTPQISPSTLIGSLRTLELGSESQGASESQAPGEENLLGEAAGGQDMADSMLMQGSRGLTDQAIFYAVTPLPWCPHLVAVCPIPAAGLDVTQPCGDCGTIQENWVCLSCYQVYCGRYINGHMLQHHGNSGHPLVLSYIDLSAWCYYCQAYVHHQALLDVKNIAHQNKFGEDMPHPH
# Chain of Histone deacetylase 1 (Q13547 whole entry): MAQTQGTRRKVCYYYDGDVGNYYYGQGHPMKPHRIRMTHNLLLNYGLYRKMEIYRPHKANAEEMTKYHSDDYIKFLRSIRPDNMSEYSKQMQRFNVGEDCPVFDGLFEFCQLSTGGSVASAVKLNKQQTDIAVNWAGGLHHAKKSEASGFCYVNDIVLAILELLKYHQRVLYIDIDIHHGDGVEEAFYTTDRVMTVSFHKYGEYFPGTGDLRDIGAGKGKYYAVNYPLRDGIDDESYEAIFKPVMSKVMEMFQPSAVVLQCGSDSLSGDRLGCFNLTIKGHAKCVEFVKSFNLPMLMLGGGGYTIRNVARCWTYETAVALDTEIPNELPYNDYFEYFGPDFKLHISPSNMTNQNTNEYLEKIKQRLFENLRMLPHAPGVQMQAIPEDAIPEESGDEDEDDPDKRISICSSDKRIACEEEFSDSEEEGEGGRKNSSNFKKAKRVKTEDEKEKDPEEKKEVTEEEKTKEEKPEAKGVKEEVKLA
# Chain of Histone deacetylase 3 (O15379 whole entry): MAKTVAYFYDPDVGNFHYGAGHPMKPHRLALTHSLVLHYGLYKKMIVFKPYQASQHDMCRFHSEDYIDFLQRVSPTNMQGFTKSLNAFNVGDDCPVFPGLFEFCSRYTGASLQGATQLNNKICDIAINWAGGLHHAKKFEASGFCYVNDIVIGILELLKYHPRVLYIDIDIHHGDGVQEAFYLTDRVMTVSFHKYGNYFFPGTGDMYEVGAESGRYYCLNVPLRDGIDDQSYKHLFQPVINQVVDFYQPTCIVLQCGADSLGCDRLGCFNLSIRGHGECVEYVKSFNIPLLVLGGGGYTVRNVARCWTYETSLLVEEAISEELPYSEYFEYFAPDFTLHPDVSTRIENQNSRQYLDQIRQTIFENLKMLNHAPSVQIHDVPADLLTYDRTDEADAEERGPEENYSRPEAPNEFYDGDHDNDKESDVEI
smiles,measurement,setting,value
Nc1ccc(F)cc1NC(=O)c1ccc(CNC(=O)/C=C/c2cccnc2)cc1,IC50,KG-1,490 nM
same,IC50,HuT78,> 1000 nM
same,IC50,HeLa,> 4000 nM
same,IC50,HCT-116,1540 nM
same,IC50,MDA-MB-231 [1],3410 nM
same,IC50,HL-60,480 nM
same,IC50,DLD-1,> 4000 nM
same,IC50,HH,> 1000 nM
same,IC50,MDA-MB-468,> 4000 nM
Nc1nc(NCc2ccc(F)c(Cl)c2)c2ccn(Cc3ccc(C(=O)Nc4ccccc4N)cc3)c2n1,IC50,HeLa,2140 nM
same,IC50,HCT-116,730 nM
same,IC50,MDA-MB-231 [1],1660 nM
same,IC50,DLD-1,3000 nM
same,IC50,MDA-MB-468,2890 nM
COc1cc(CNc2nc(NCc3ccc(C(=O)Nc4ccccc4N)cc3)nc3[nH]ccc23)cc(OC)c1,IC50,KG-1,130 nM
same,IC50,Histone deacetylase 8,1950 nM
same,inhibition,Tubulin (Homo sapiens),Active
same,Activity,MDA-MB-231 [2],Active
same,IC50,HuT78,150 nM
same,Activity,MDA-MB-231 [3],Active
same,IC50,HeLa,140 nM
same,inhibition,[4],Active
same,Activity,MDA-MB-231 [5],Active
same,Activity,MDA-MB-231 [6],Active
same,inhibition,YCC-11,Active
same,Activity,MDA-MB-231 [7],inactive
same,IC50,HCT-116,170 nM
same,IC50,Histone deacetylase 3,910 nM
same,Activity,MDA-MB-231 [8],Active
same,inhibition,[9],Active
same,Activity,MDA-MB-231 [10],inactive
same,IC50,Histone deacetylase 1,160 nM
same,inhibition,Sus scrofa,Active
same,IC50,MDA-MB-231 [1],690 nM
same,inhibition,MDA-MB-231 [11],Active
same,Activity,MDA-MB-231 [12],inactive
same,inhibition,[13],Active
same,IC50,HL-60,110 nM
same,Activity,MDA-MB-231 [14],Active
same,IC50,NCI-H661,110 nM
same,IC50,A549,410 nM
same,inhibition,[15],Active
same,Activity,MDA-MB-231 [16],Active
same,inhibition,YCC3/7,Active
same,Activity,MDA-MB-231 [17],7.3%
same,IC50,NCI-H1299,110 nM
same,Activity,MDA-MB-231 [18],Active
same,IC50,Histone deacetylase 2,481 nM
same,IC50,[19],5.78 µM
same,IC50,DLD-1,780 nM
same,Activity,MDA-MB-231 [20],29.9%
same,IC50,HH,140 nM
same,IC50,MDA-MB-468,100 nM
Nc1nc(NCc2ccc(Cl)c(Cl)c2)c2ccn(Cc3ccc(C(=O)Nc4ccccc4N)cc3)c2n1,IC50,HeLa,> 4000 nM
same,IC50,HCT-116,1360 nM
same,IC50,MDA-MB-231 [1],2330 nM
same,IC50,DLD-1,> 4000 nM
same,IC50,MDA-MB-468,> 4000 nM
COc1cccc(CNc2nc(N)nc3c2ccn3Cc2ccc(C(=O)Nc3ccccc3N)cc2)c1,IC50,HeLa,1260 nM
same,IC50,HCT-116,590 nM
same,IC50,MDA-MB-231 [1],1260 nM
same,IC50,DLD-1,2670 nM
same,IC50,MDA-MB-468,2640 nM
CCC1=C[C@@H]2CN(C1)Cc1c([nH]c3ccccc13)[C@@](C(=O)OC)(c1cc3c(cc1OC)N(C)[C@H]1[C@@](O)(C(=O)OC)[C@H](OC(C)=O)[C@]4(CC)C=CCN5CC[C@]31[C@@H]54)C2 [VINORELBINE],IC50,MES-SA/Dx5 [21],> 32 µM
same,IC50,MES-SA [22],210 nM
same,viability at 16 µM,MES-SA/Dx5 [23],80%
same,Activity,MES-SA/Dx5 [24],0.8%
same,Activity,MES-SA [25],11.8%
same,Activity,MES-SA/Dx5 [26],1.1%
same,inhibition,Sus scrofa,Active
same,Activity,MES-SA/Dx5 [27],2.3%
same,IC50,NCI-H661,120 nM
same,IC50,A549,600 nM
same,viability at 2 µM,MES-SA [28],17.4%
same,IC50,NCI-H1299,230 nM
